Results taken from article PMC3017236 (Clinical cancer research : an official journal of the …, 2010).
“Also recorded” adds a separate entry of the source. Where two headings read alike, the source gives them in different places.

Experiments:
[1] = humans; cited from earlier work
[2] = target: T1, organic anion transporter-3 (OAT3) (Homo sapiens, UniProt Q8TCC7); assay: Uptake in HEK-293 cells transfected with OAT3 vs empty vector; settings: HEK-293/OAT3, 5 minutes incubation, 0.5 μg/mL
T1 sequence (Q8TCC7 1-542): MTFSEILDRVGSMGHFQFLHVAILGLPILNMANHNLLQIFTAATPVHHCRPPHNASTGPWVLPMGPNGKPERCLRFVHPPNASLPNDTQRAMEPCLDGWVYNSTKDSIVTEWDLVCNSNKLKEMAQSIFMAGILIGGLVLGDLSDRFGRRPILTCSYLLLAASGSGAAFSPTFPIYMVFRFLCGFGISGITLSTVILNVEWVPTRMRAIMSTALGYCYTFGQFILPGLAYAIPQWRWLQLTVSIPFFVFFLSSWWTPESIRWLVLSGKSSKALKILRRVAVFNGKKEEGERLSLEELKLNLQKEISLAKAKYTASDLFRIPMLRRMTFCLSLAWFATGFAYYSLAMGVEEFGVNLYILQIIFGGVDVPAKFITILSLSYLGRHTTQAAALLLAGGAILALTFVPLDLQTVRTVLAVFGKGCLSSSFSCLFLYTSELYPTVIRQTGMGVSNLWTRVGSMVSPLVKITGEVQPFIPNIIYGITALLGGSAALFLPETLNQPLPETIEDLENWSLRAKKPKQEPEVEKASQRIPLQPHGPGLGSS

[3] = target: T2, organic cation transporter-2 (OCT2) (Homo sapiens, UniProt O15244); assay: Uptake in HEK-293 cells transfected with OCT2 vs empty vector; settings: HEK-293/OCT2, 5 minutes incubation, 0.5 μg/mL
T2 sequence (O15244 1-555): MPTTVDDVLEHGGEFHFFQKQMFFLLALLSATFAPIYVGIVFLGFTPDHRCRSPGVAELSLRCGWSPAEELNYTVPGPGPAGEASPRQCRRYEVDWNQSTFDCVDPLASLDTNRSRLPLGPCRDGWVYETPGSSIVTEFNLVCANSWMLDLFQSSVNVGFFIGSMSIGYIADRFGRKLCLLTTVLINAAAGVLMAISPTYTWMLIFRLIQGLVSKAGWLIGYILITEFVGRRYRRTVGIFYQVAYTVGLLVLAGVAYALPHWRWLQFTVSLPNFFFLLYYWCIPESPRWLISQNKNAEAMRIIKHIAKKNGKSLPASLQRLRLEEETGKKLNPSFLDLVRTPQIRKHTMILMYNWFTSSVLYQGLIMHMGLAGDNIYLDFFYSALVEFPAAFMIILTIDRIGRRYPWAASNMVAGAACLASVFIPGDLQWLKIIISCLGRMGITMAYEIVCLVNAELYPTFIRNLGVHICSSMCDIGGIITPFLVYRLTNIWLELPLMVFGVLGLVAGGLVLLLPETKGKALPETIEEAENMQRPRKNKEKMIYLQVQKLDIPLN

human BCRP = target: T3, human BCRP (Homo sapiens, UniProt Q9UNQ0); assay: Intracellular accumulation in Saos2-BCRP cells vs Saos2-pcDNA3.1; settings: for Effect of elacridar on intracellular accumulation: Saos2-BCRP cells, pre-incubation 30 minutes with elacridar (4 μM); for Intracellular accumulation vs control cells: Saos2-BCRP vs Saos2-pcDNA3.1, 0.5 μg/mL, 37°C
T3 sequence (Q9UNQ0 1-655): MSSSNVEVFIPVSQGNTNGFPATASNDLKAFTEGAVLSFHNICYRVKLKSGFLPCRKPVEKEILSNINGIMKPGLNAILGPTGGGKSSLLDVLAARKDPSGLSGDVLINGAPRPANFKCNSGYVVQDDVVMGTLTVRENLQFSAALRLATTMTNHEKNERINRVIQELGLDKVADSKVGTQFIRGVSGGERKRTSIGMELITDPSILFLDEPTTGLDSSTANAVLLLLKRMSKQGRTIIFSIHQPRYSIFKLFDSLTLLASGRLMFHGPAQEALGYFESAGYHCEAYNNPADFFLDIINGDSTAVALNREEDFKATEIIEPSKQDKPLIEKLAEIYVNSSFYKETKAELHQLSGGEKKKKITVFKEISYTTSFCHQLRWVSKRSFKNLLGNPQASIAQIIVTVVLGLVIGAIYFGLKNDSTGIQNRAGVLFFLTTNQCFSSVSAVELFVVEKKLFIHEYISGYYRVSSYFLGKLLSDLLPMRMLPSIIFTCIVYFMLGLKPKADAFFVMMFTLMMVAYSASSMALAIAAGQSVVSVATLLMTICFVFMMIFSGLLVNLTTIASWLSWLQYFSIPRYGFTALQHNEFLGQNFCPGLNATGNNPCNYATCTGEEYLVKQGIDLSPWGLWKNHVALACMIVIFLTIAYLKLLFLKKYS

SMILES	Differences in unbound fraction between strains (plasma from each mouse strain, equilibrium dialysis)	Renal clearance component as share of overall elimination [1]	Uptake vs empty vector HEK-293 cells [2]	Uptake vs empty vector HEK-293 cells ([2]; listed as Erlotinib)	Uptake vs empty vector HEK-293 cells [3]	Uptake vs empty vector HEK-293 cells ([3]; listed as Erlotinib)	Effect of elacridar on intracellular accumulation (human BCRP)	Intracellular accumulation vs control cells (human BCRP)	Differences in unbound fraction between strains (mouse, plasma)	Unbound fraction (fu) (mouse, plasma)	Systemic exposure relative to that of erlotinib [1]
C#Cc1cccc(Nc2ncnc3cc(OCCOC)c(OCCOC)cc23)c1 [erlotinib, Erlotinib]	No significant differences	~ 10%	significantly higher	higher	significantly increased	higher	significantly increased	significantly lower; also recorded: significantly reduced	–	–	–
C#Cc1cccc(Nc2ncnc3cc(OCCOC)c(OCCO)cc23)c1 [OSI-420]	–	–	significantly higher	–	significantly increased	–	significantly increased	significantly lower; also recorded: significantly reduced	No significant differences	6.6 % ± 0.7%	10-20%
